The target in test [1] is Acetylcholinesterase (Homo sapiens, UniProt P22303). Kind of test: Inhibition of AChE (unknown origin) using acetylthiocholine iodide as substrate by Ellman's method.
Test [2] relates to Mus musculus. The test can be described thus: Neuroprotective activity in Swiss albino mouse model of STZ-induced cognition deficit assessed as reduction in Abeta42 deposition level in brain at 3.7 mg/kg, po administrated for 15 days by ELISA. The class given is functional, organism-based. In general terms: In an ELISA, binding on a coated surface is turned into a signal by an enzyme label.

Test [3] relates to Mus musculus. Kind of test: Cognitive enhancing effect in Swiss albino mouse model of STZ-induced cognition deficit assessed as reduction in escape latency time to find removed platform position at 3.7 mg/kg, po administrated for 15 days and measured for 4 days by Morris water maze test. The class given is functional, organism-based.
Test [4] concerns Mus musculus. Kind of test: Cognitive enhancing effect in Swiss albino mouse model of STZ-induced cognition deficit assessed as increase in spontaneous alteration at 3.7 mg/kg, po administrated for 15 days and measured for 8 mins by Y-maze test. The format is functional, organism-based.
For test [5], the system named is Mus musculus. Kind of test: Memory enhancement effect in Swiss albino mouse model of STZ-induced cognition deficit assessed as increase in exploratory preference at 3.7 mg/kg, po administrated for 15 days and measured for 5 mins by novel object recognition test. The class given is functional, organism-based.
In test [6] the test system is Mus musculus. The test can be described thus: Cognitive enhancing effect in Swiss albino mouse model of STZ-induced cognition deficit assessed as increase in time spent in target quadrant at 3.7 mg/kg, po administrated for 15 days and measured at 5th day of training session for 60 secs by Morris water maze test. The format is functional, organism-based.
Test [7] has as its system Mus musculus. The test can be described thus: Cognitive enhancing effect in Swiss albino mouse model of STZ-induced cognition deficit assessed as increase in spontaneous alteration at 3.2 mg/kg, po administrated for 15 days and measured for 8 mins by Y-maze test. The class given is functional, organism-based.
In test [8] the test system is Mus musculus. Kind of test: Memory enhancement effect in Swiss albino mouse model of STZ-induced cognition deficit assessed as increase in exploratory preference at 3.2 mg/kg, po administrated for 15 days and measured for 5 mins by novel object recognition test. The class given is functional, organism-based.
In test [9] the test system is Mus musculus. Kind of test: Cognitive enhancing effect in Swiss albino mouse model of STZ-induced cognition deficit assessed as reduction in escape latency time to find removed platform position at 3.2 mg/kg, po administrated for 15 days and measured for 4 days by Morris water maze test. The format is functional, organism-based.
Test [10] concerns Mus musculus. The test can be described thus: Cognitive enhancing effect in Swiss albino mouse model of STZ-induced cognition deficit assessed as increase in time spent in target quadrant at 3.2 mg/kg, po administrated for 15 days and measured at 5th day of training session for 60 secs by Morris water maze test. The class given is functional, organism-based.
Test [11] has as its system Mus musculus. Kind of test: Neuroprotective activity in Swiss albino mouse model of STZ-induced cognition deficit assessed as reduction in Abeta42 deposition level in brain at 3.2 mg/kg, po administrated for 15 days by ELISA. The format is functional, organism-based.
Test [12] has as its system Mus musculus. Kind of test: Cognitive enhancing effect in Swiss albino mouse model of STZ-induced cognition deficit assessed as increase in time spent in target quadrant at 2.5 mg/kg, po administrated for 15 days and measured at 5th day of training session for 60 secs by Morris water maze test. The format is functional, organism-based.
Test [13] relates to Mus musculus. Kind of test: Cognitive enhancing effect in Swiss albino mouse model of STZ-induced cognition deficit assessed as increase in spontaneous alteration at 2.5 mg/kg, po administrated for 15 days and measured for 8 mins by Y-maze test. The format is functional, organism-based.
Test [14] has as its system Mus musculus. The test can be described thus: Neuroprotective activity in Swiss albino mouse model of STZ-induced cognition deficit assessed as reduction in Abeta42 deposition level in brain at 2.5 mg/kg, po administrated for 15 days by ELISA. The format is functional, organism-based.
The subject of test [15] is Mus musculus. The test can be described thus: Memory enhancement effect in Swiss albino mouse model of STZ-induced cognition deficit assessed as increase in exploratory preference at 2.5 mg/kg, po administrated for 15 days and measured for 5 mins by novel object recognition test. The format is functional, organism-based.
In test [16] the test system is Mus musculus. The test can be described thus: Cognitive enhancing effect in Swiss albino mouse model of STZ-induced cognition deficit assessed as reduction in escape latency time to find removed platform position at 2.5 mg/kg, po administrated for 15 days and measured for 4 days by Morris water maze test. The class given is functional, organism-based.

Activity calls are given as the source filed them. The calls are words filed in the database; no cut-off is given here.

Acetylcholinesterase, sequence (P22303 whole entry): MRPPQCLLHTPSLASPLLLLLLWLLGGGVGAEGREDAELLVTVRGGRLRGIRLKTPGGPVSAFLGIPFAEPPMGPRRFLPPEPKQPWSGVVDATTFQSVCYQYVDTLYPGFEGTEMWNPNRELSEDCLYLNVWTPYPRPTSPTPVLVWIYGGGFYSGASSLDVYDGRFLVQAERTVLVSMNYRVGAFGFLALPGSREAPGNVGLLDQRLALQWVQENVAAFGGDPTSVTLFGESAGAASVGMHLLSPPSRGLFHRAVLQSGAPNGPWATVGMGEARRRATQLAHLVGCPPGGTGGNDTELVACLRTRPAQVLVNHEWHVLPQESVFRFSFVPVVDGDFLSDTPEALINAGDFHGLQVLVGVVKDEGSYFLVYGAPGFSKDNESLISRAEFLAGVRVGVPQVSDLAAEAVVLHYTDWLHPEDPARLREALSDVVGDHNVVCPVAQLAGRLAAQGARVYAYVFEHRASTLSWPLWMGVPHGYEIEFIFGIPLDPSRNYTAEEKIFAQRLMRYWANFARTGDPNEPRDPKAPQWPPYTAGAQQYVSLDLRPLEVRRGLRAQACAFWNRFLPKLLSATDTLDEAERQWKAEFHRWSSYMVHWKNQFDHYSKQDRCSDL

The term IC50 denotes the midpoint of a concentration-inhibition curve. A low value points to greater potency. Take `O=C1N/C(=N\c2ccc3oc(=O)ccc3c2)S/C1=C/c1ccccc1`: the IC50 in test [1] was 94.1 nM.
Compound `COc1ccc(/C=C2/S/C(=N/c3ccc4oc(=O)ccc4c3)NC2=O)cc1` registered an IC50 in [1] of 49.8 nM. Compared with the last compound, the IC50 is about 1.9-fold lower.
Regarding `CSc1ccc(/C=N/c2ccc3oc(=O)ccc3c2)cc1`, in test [1], the IC50 was 172 nM.
The same measure, in the same setting: the result for `COc1ccc(NCC(=O)Nc2ccc3oc(=O)ccc3c2)cc1` reads 55.2 nM.
In test [1], `COc1ccc(/C=N/c2ccc3oc(=O)ccc3c2)cc1` returned an IC50 of 135 nM. This IC50 is about 2.4-fold higher than that of the compound before.
In the case of `O=C(CNc1ccc2oc(=O)ccc2c1)N1CCOCC1`, the outcome in test [2], in [3], in test [4], in test [5] and in test [6] was Active. Inhibition in test [1] was half-maximal at 37 nM (IC50).
Take `O=c1ccc2cc(/N=C/c3ccc(F)cc3)ccc2o1`: in [1], half-maximal inhibition (IC50) was put at 226 nM.
In turn, `O=C(CNc1ccc2oc(=O)ccc2c1)c1ccccc1` came in with an IC50 in [1] of 148 nM.
On to `COc1ccc(C(=O)CNc2ccc3oc(=O)ccc3c2)cc1`, for which the result in [7], in test [8], in test [9], in [10] and in [11] was Active. In [1], this compound had an IC50 of 55 nM.
`O=c1ccc2cc(/N=C/c3ccc(Cl)cc3)ccc2o1` came in with an IC50 in test [1] of 78.9 nM.
Compound `O=C(CNc1ccc2oc(=O)ccc2c1)N1CCN(c2ccccc2)CC1` yielded an IC50 in [1] of 80 nM.
Same read-out and setting: the result for `O=C1CSC(c2ccc(F)cc2)N1c1ccc2oc(=O)ccc2c1` (stereo not drawn) reads 102 nM; that for `O=c1ccc2cc(/N=C/c3ccc(Br)cc3)ccc2o1`, 56.9 nM; that for `CSc1ccc(/C=C2/S/C(=N/c3ccc4oc(=O)ccc4c3)NC2=O)cc1`, 151 nM.
In test [1], `O=C1N/C(=N\c2ccc3oc(=O)ccc3c2)S/C1=C/c1ccc(F)cc1` showed an IC50 of 216 nM. This IC50 and that of the compound before are within 1.5-fold of each other.
Turning to `CN(C)c1ccc(/C=C2/S/C(=N/c3ccc4oc(=O)ccc4c3)NC2=O)cc1`, half-maximal inhibition in test [1] (IC50) required 84 nM.
Same read-out and setting: the result for `O=C1N/C(=N\c2ccc3oc(=O)ccc3c2)S/C1=C/c1ccc(Br)cc1` reads 276 nM.
Still for that read-out and setting: the result for `CSc1ccc(C2SCC(=O)N2c2ccc3oc(=O)ccc3c2)cc1` (stereo not drawn) reads 311 nM.
Consider `CN(C)c1ccc(/C=N/c2ccc3oc(=O)ccc3c2)cc1`, for which the result in test [12], in test [13], in test [14], in test [15] and in test [16] was Active. The compound further had an IC50 in [1] of 41 nM.
In test [1], `O=C(CNc1ccc(F)cc1)Nc1ccc2oc(=O)ccc2c1` came in with a half-maximal inhibitory concentration (IC50) of 62 nM. This counts as double-digit nanomolar.
`COc1ccc(C2SCC(=O)N2c2ccc3oc(=O)ccc3c2)cc1` (stereo not drawn) came in with an IC50 in [1] of 71.1 nM.
For `O=C1N/C(=N\c2ccc3oc(=O)ccc3c2)S/C1=C/c1ccc(Cl)cc1`, the midpoint of inhibition in test [1], the IC50, lay at 173 nM. This IC50 is about 2.4-fold higher than that of the compound before.
On the same count and under the same terms, with `O=c1ccc2cc(/N=C/c3ccccc3)ccc2o1` the figure was 114 nM.
